From patent US9255100B2 (BAYER INTELLECTUAL PROPERTY GMBH, priority 2010, dated 2016)

Molecular target: T1, N-terminally GST-tagged human full length recombinant Mps-1 kinase (Homo sapiens, UniProt P33981)
T1 construct: N-terminally GST-tagged human full length recombinant Mps-1 kinase; purchased Invitrogen, Karslruhe, Germany PV4071
T1 sequence (P33981 1-857): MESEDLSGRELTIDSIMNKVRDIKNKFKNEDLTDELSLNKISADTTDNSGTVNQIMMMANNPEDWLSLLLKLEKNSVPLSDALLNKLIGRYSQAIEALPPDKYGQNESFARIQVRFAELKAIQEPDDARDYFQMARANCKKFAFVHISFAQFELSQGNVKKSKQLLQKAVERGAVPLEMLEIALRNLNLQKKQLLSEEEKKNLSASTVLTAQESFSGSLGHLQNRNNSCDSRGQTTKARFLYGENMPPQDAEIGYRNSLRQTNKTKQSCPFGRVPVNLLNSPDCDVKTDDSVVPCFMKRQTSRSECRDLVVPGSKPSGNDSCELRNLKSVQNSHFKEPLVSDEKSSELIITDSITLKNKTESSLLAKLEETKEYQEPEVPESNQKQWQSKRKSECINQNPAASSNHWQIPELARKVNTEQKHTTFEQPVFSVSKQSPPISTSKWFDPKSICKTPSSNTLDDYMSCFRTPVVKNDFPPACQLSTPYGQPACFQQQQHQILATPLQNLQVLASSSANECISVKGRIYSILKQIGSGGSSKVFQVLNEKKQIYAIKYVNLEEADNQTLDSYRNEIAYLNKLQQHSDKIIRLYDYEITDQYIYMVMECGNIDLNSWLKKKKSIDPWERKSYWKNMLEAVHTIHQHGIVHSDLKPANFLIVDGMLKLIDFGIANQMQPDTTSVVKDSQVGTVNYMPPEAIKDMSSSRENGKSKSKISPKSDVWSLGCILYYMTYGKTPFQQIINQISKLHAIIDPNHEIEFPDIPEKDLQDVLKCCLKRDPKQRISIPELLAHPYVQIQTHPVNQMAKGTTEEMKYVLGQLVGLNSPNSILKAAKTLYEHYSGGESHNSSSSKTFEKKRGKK
Test: Mps-1 kinase assay (TR-FRET)
Assay type: biochemical
Conditions: Mps1 IC50 [nM], 10 μM ATP, 1 μM peptide substrate, 60 min at 22° C.
In short: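 GST-tagged full-length recombinant Mps-1 at about 1 nM final, adjusted per lot for linear range, phosphorylated a biotinylated peptide. Product bound Eu-anti-phospho(Ser/Thr) antibody over 1 h at 22° C and was read by TR-FRET to streptavidin-XLent. Compounds scored for kinase inhibition.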

Structure (SMILES) | IC50 [nM]
Cc1cc(Sc2cc(NCC(C)(C)O)c3ncc(-c4ccc(C(=O)NC5CC5)c(C)c4)n3n2)ccc1O [Example 63, N-cyclopropyl-4-{6-[(4-hydroxy-3-methylphenyl)sulfanyl]-8-[(2-hydroxy-2-methylpropyl)amino]imidazo[1,2-b]pyridazin-3-yl}-2-methylbenzamide] | < 0.1
CNC(=O)c1ccc(-c2cnc3c(NCCC(F)(F)F)cc(Oc4cccc(F)c4)nn23)cc1C [Example 551, 4-{6-(3-fluorophenoxy)-8-[(3,3,3-trifluoropropyl)amino]imidazo[1,2-b]pyridazin-3-yl}-N,2-dimethylbenzamide] | 0.2
CC=Cc1cc(NCC(C)(C)O)c2ncc(-c3ccc(-c4cnc(C5CC5)[nH]4)cc3)n2n1 (mixture of isomers) [Example 2, 1-({3-[4-(2-Cyclopropyl-1H-imidazol-5-yl)phenyl]-6-[(1E/Z)-prop-1-en-1-yl]imidazo[1,2-b]pyridazin-8-yl}amino)-2-methylpropan-2-ol] | 90.5
Cc1cc(-c2cnc3c(NCC4CN(C)C4)cc(Oc4cccc(F)c4F)nn23)ccc1C(=O)NC1CC1 [Example 543, N-cyclopropyl-4-[6-(2,3-difluorophenoxy)-8-{[(1-methylazetidin-3-yl)methyl]amino}imidazo[1,2-b]pyridazin-3-yl]-2-methylbenzamide] | 0.2
CNC(=O)c1ccc(-c2cc(NCC(C)C)c3ncc(-c4ccc(C(=O)NC5CC5)cc4)n3n2)cn1 [Example 149, 5-{3-[4-(Cyclopropylcarbamoyl)phenyl]-8-[(2-methylpropyl)amino]imidazo[1,2-b]pyridazin-6-yl}-N-methylpyridine-2-carboxamide] | 2.2
CC=Cc1cc(NCCC(F)(F)F)c2ncc(-c3ccc(C(=O)NC4CC4)c(C)c3)n2n1 (mixture of isomers) [Example 23, N-cyclopropyl-2-methyl-4-{6-[(1E/Z)-prop-1-en-1-yl]-8-[(3,3,3-trifluoropropyl)amino]imidazo[1,2-b]pyridazin-3-yl}benzamide] | 2.4
CCNC(=O)c1ccc(-c2cnc3c(NCCOC)cc(Oc4ccc(F)c(F)c4)nn23)cc1C [Example 607, 4-{6-(3,4-difluorophenoxy)-8-[(2-methoxyethyl)a-mino]imidazo[1,2-b]pyridazin-3-yl}-N-ethyl-2-methylbenzamide] | 3.7
Cc1cc(-c2cnc3c(NCCN(C)C)cc(Oc4ccc(Cl)cc4)nn23)ccc1C(=O)NC1CC1 [Example 523, 4-[6-(4-chlorophenoxy)-8-{[2-(dimethylamino)ethyl]amino}imidazo[1,2-b]pyridazin-3-yl]-N-cyclopropyl-2-methylbenzamide] | 0.7
Cc1cc(-c2cnc3c(NCCC(F)(F)F)cc(Oc4cccnc4)nn23)ccc1C(=O)NC1CC1 [Example 174, N-cyclopropyl-2-methyl-4-{6-(pyridin-3-yloxy)-8-[(3,3,3-trifluoro-propyl)amino]imidazo[1,2-b]pyridazin-3-yl}benzamide] | < 0.1
CNc1cc(Oc2cc(F)ccc2C)nn2c(-c3ccc(C(=O)NC4CC4)c(C)c3)cnc12 [Example 530, N-cyclopropyl-4-[6-(5-fluoro-2-methylphenoxy)-8-(methylamino)imidazo [1,2-b]pyridazin-3-yl]-2-methylbenzamide] | 0.6
Cc1cc(-c2cnc3c(NCC(C)(C)O)cc(Oc4cccc(F)c4F)nn23)ccc1C(=O)NC1CC1 [Example 92, N-cyclopropyl-4-{6-(2,3-difluorophenoxy)-8-[(2-hydroxy-2-methylpropyl)amino]imidazo[1,2-b]pyridazin-3-yl}-2-methylbenzamide] | 0.2
CC(C)CNc1cc(-c2ccccc2F)nn2c(-c3ccc(C(=O)NC4CC4)cc3)cnc12 [Example 132, N-cyclopropyl-4-{6-(2-fluorophenyl)-8-[(2-methylpropyl)amino]imidazo[1,2-b]pyridazin-3-yl}benzamide] | 1.5
CNC(=O)c1ccc(-c2cnc3c(NCCC(F)(F)F)cc(Oc4cccc(F)c4)nn23)cc1C [Example 575, 4-{6-(3-fluorophenoxy)-8-[(3,3,3-trifluoropropyl)a-mino]imidazo[1,2-b]pyridazin-3-yl}-N,2-dimethylbenzamide] | < 1
Cc1cc(-c2cnc3c(NCC(C)(C)N)cc(Oc4cccnc4)nn23)ccc1C(=O)NC1CC1 [Example 522, 4-{8-[(2-amino-2-methyl-propyl)amino]-6-(pyridin-3-yloxy)imidazo[1,2-b]pyridazin-3-yl}-N-cyclopropyl-2-methylbenzamide] | 1.8
Cc1cc(-c2cnc3c(NC[C@H]4CC[S@@+]([O-])CC4)cc(Sc4cccc(F)c4)nn23)ccc1C(=O)NC1CC1 [Example 304A, N-cyclopropyl-4-(6-[(3-fluorophenyl)sulfanyl]-8-({[(cis)-1-oxidotetrahydro-2H-thiopyran-4-yl]methyl}amino)imidazo[1,2-b]pyridazin-3-yl)-2-methylbenzamide] | < 0.1

The next lines start with the values.

IC50 [nM] | Structure (SMILES)
0.8 | Cc1cc(-c2cnc3c(NCC(C)(C)O)cc(Sc4ccc(F)c(F)c4)nn23)ccc1C(=O)NC1CC1 [Example 300, N-cyclopropyl-4-{6-[(3,4-difluorophenyl)sulfanyl]-8-[(2-hydroxy-2-methylpropyl)amino]imidazo[1,2-b]pyridazin-3-yl}-2-methylbenzamide]
1.2 | CCNC(=O)c1ccc(-c2cnc3c(NCC(F)F)cc(Oc4ccc(OC)cc4F)nn23)cc1C [Example 605, 4-{8-[(2,2-difluoroethyl)amino]-6-(2-fluoro-4-methoxyphen-oxy)imidazo[1,2-b]pyridazin-3-yl}-N-ethyl-2-methylbenzamide]
0.3 | Cc1ccc(Cc2cc(NCCC(F)(F)F)c3ncc(-c4ccc(C(=O)NC5CC5)c(C)c4)n3n2)cc1F [Example 484, N-cyclopropyl-4-{6-(3-fluoro-4-methylbenzyl)-8-[(3,3,3-tri-fluoropropyl)amino]imidazo [1,2-b]pyridazin-3-yl}-2-methylbenzamide]
0.2 | CNc1cc(N(C)c2ccccc2O)nn2c(-c3ccc(C(=O)NC4CC4)c(C)c3)cnc12 [Example 532, N-cyclopropyl-4-{6-[(2-hydroxyphenyl)(methyl)amino]-8-(methylamino)imidazo[1,2-b]pyridazin-3-yl}-2-methylbenzamide]
0.3 | Cc1cc(-c2cnc3c(NCCC(F)(F)F)cc(Nc4ccc(Cl)cc4)nn23)ccc1C(=O)NC1CC1 [Example 374, 4-{6-[(4-chlorophenyl)amino]-8-[(3,3,3-trifluoropropyl)amino]imidazo[1,2-b]pyridazin-3-yl}-N-cyclopropyl-2-methylbenzamide]
0.3 | Cc1cc(-c2cnc3c(NCC(C)(C)N4CCOCC4)cc(Oc4cccc(F)c4)nn23)ccc1C(=O)NC1CC1 [Example 498, N-cyclopropyl-4-[6-(3-fluoro-phenoxy)-8-{[2-methyl-2-(morpholin-4-yl)propyl]amino}imidazo[1,2-b]pyridazin-3-yl]-2-methylbenzamide]
< 1 | CNC(=O)c1ccc(-c2cnc3c(NCC4CCOCC4)cc(Oc4ccc(F)c(F)c4)nn23)cc1C [Example 567, 4-{6-(3,4-difluorophenoxy)-8-[(tetrahydro-2H-pyran-4-ylmethyl)amino]imidazo[1,2-b]pyridazin-3-yl}-N,2-dimethylbenzamide]
0.2 | Cc1cc(-c2cnc3c(NCC(C)(C)O)cc(Sc4cccc(F)c4)nn23)ccc1C(=O)NC1CC1 [Example 89, N-cyclopropyl-4-{6-[(3-fluorophenyl)sulfanyl]-8-[(2-hydroxy-2-methylpropyl)amino]imidazo[1,2-b]pyridazin-3-yl}-2-methylbenzamide]
25 | CC(C)(O)CNc1cc(-c2ccncc2)nn2c(-c3ccc(-c4cnc(C5CC5)[nH]4)cc3)cnc12 [Example 9, 1-({3-[4-(2-Cyclopropyl-1H-imidazol-5-yl)phenyl]-6-(pyridin-4-yl)imidazo[1,2-b]pyridazin-8-yl}amino)-2-methylpropan-2-ol]
5.1 | Cc1cc(-c2cnc3c(NCC(C)(C)O)cc(-c4cccnc4)nn23)ccc1C(=O)NC1CC1 [Example 156, N-cyclopropyl-4-{8-[(2-hydroxy-2-methylpropyl)amino]-6-(pyridin-3-yl)imidazo[1,2-b]pyridazin-3-yl}-2-methylbenzamide]
0.4 | COc1ccc(Nc2cc(NCC(C)(C)O)c3ncc(-c4ccc(C(=O)NC5CC5)c(C)c4)n3n2)cc1 [Example 354, N-cyclopropyl-4-{8-[(2-hydroxy-2-methylpropyl)amino]-6-[(4-methoxyphenyl)amino]imidazo[1,2-b]pyridazin-3-yl}-2-methylbenzamide]
